According to PMC9452538, “The antimicrobial peptide LI14 combats multidrug-resistant bacterial infections” (Communications Biology, 2022):
Converted amounts (≈) assume the structure as drawn. Where two headings read alike, the source gives them in different places. Peptide text beside a SMILES is read from it.

Key:
[1] = test system: MRSA T144; test: microbe, parasite or virus in culture; type: cell-based, Staphylococcus aureus
Description: (§1) An antimicrobial activity study was conducted on all peptides against a panel of laboratory bacteria, including ATCC source and clinical isolates with resistance determinants. According to CLSI2021 guidelines, we tested the minimum inhibitory concentrations (MICs) of peptides using standard broth micro-dilutions. Briefly, bacteria grown to exponential phase were diluted in 1:1000 to MHB, subsequently, equivalent amounts of bacterial suspension (1.5 × 10^6 CFUs/mL) were mixed with different concentrations of peptides in a sterilized 96-well microtiter plate (Corning).

[2] = test system: S. aureus ATCC 29213; test: microbe, parasite or virus in culture; type: cell-based, Staphylococcus aureus
Description: as §1

[3] = test system: MRSA 1518; test: microbe, parasite or virus in culture; type: cell-based, Staphylococcus aureus
Description: as §1

[4] = test system: MRSA 1530; test: microbe, parasite or virus in culture; type: cell-based, Staphylococcus aureus
Description: as §1

[5] = test system: E. faecalis 1F-1; test: microbe, parasite or virus in culture; type: cell-based
Description: as §1

[6] = test system: E. faecalis A4 (VRE, VanA); test: microbe, parasite or virus in culture; type: cell-based
Description: as §1

[7] = test system: S. enteritidis ATCC 13076; test: microbe, parasite or virus in culture; type: cell-based
Description: as §1

[8] = test system: E. faecium 5F-10; test: microbe, parasite or virus in culture; type: cell-based, Enterococcus faecium
Description: as §1

[9] = test system: E. coli ATCC 25922; test: microbe, parasite or virus in culture; type: cell-based, Escherichia coli
Description: as §1

[10] = test system: E. coli B2 (blaNDM-5 + mcr-1); test: microbe, parasite or virus in culture; type: cell-based, Escherichia coli
Description: as §1

[11] = test system: E. coli 1F28 (tet(X4)); test: microbe, parasite or virus in culture; type: cell-based, Escherichia coli
Description: as §1

[12] = test system: E. coli B3-1 (tet(X4)); test: microbe, parasite or virus in culture; type: cell-based, Escherichia coli
Description: as §1

[13] = test system: E. coli C3 (blaNDM-1); test: microbe, parasite or virus in culture; type: cell-based, Escherichia coli
Description: as §1

[14] = test system: E. coli CP131 (mcr-3); test: microbe, parasite or virus in culture; type: cell-based, Escherichia coli
Description: as §1

[15] = test system: E. coli G6 (blaNDM-5); test: microbe, parasite or virus in culture; type: cell-based, Escherichia coli
Description: as §1

[16] = test system: E. coli G92 (mcr-1); test: microbe, parasite or virus in culture; type: cell-based, Escherichia coli
Description: as §1

[17] = test system: A. baumannii ATCC 19609; test: microbe, parasite or virus in culture; type: cell-based, Acinetobacter baumannii
Description: as §1

[18] = test system: A. baumannii C222 (tet(X6)); test: microbe, parasite or virus in culture; type: cell-based, Acinetobacter baumannii
Description: as §1

[19] = test system: P. aeruginosa PA14; test: microbe, parasite or virus in culture; type: cell-based, Pseudomonas aeruginosa
Description: as §1

[20] = test system: K. pneumoniae ATCC 700603; test: microbe, parasite or virus in culture; type: cell-based, Klebsiella pneumoniae
Description: as §1

[21] = test system: K. pneumoniae D120 (mcr-8); test: microbe, parasite or virus in culture; type: cell-based, Klebsiella pneumoniae
Description: as §1

[22] = test system: P. cibarius HNCF44W (blaNDM-1 + tet(X6)); test: organism not typed; type: cell-based
Description: as §1

[23] = test system: MRSA T144; type: cell-based, Staphylococcus aureus
Description: (§2) MRSA T144 and E. coli B2 in the exponential growth phase were incubated with LI14 peptide supplemented with 10 mM Na^+, K^+, Mg^2+, 10% Dulbecco’s modified Eagle medium (DMEM), and 10% fetal bovine serum (FBS) for 16–18 h. The stability of LI14 was evaluated by the change of its antibacterial activity under different conditions.
(§3) LI14 were preincubated for 1 h at various temperatures (40–121 °C), pH (2–12), and proteases (pepsin, trypsin, and papain, final concentration 1 mg/mL). […] Following the incubation with the proteases, the leftover protease was precipitated with acetonitrile and removed by centrifugation at 3000 × g, followed by a MIC test.
(§4) Supplementary Table 4 Thermal, pH, salts and protease stability of AMPs against
(§5) MRSA T144 and E. coli B2 (MIC, μg/mL).
(§6) Treatment MRSA T144 E. coli B2

[24] = test system: E. coli B2; type: cell-based, Escherichia coli
Description: as §2, §3, §4, §5, §6

[25] = test system: S. aureus 215 (cfr + LZD^R); test: MIC broth microdilution; type: cell-based, Staphylococcus aureus; details: S. aureus 215 (cfr + LZD^R); MHB, 16-18 h, 37 °C
Description: as §1

[26] = test system: S. aureus G16 (RIF^R); test: MIC broth microdilution; type: cell-based, Staphylococcus aureus; details: S. aureus G16 (RIF^R); MHB, 16-18 h, 37 °C
Description: as §1

[27] = test system: E. coli DH5α (PUC19); test: MIC broth microdilution; type: cell-based, Escherichia coli; details: engineered E. coli DH5α (PUC19); MHB, 16-18 h, 37 °C
Description: as §1

[28] = test system: E. coli DH5α (PUC19-mcr-1); test: MIC broth microdilution; type: cell-based, Escherichia coli; details: engineered E. coli DH5α (PUC19-mcr-1); MHB, 16-18 h, 37 °C
Description: as §1

[29] = test system: MDR E. coli B2; test: Checkerboard assay with LI14; type: cell-based, Escherichia coli
Description: Through checkerboard assay using two-fold serially diluted drugs (8 × 8 matrix), we evaluated the synergistic effects of LI14 with different mechanisms of antibiotics. The absorbance of cultures at 600 nm was determined by a Microplate reader after 18 h of incubation with (1.5 × 10^6 CFUs/mL) bacterial suspension. The FIC index (FICI) was calculated by performing two biological replicates for each combination. The formula is as follows: FIC index = FICIa + FICIb = MICab/MICa + MICba/Mb. An FIC index of ≤0.5 indicates synergy.
a/bMICs of antibiotics in the absence or presence of ¼ MIC of LI14.
cDegree of antibiotics potentiation in the presence of ¼ MIC of LI14.
–, none of potentiation activity.

Molecule: CC[C@H](C)[C@H](NC(=O)[C@H](CCCNC(=N)N)NC(=O)[C@H](CS)NC(=O)[C@H](CC(C)C)NC(=O)[C@H](CCCCN)NC(=O)[C@H](CCCCN)NC(=O)[C@H](CC(C)C)NC(=O)[C@@H](NC(=O)[C@H](CCCNC(=N)N)NC(=O)[C@H](CS)NC(=O)[C@H](CC(C)C)NC(=O)[C@H](CCCCN)NC(=O)[C@H](CCCCN)NC(=O)[C@H](CC(C)C)NC(=O)[C@@H](NC(=O)[C@H](CCCNC(=N)N)NC(=O)[C@H](CS)NC(=O)[C@H](CC(C)C)NC(=O)[C@H](CCCCN)NC(=O)[C@H](CCCCN)NC(=O)[C@@H](N)CC(C)C)[C@@H](C)CC)[C@@H](C)CC)C(N)=O [LI21] (H-LKKLCRILKKLCRILKKLCRI-NH2; N-terminus and C-terminus assumed)
- MIC ([1]; T144): 32 µg/mL (≈ 12.4 µM)
- MIC ([2]; ATCC 29213): 32 µg/mL (≈ 12.4 µM)
- MIC [3]; 1518: 32 µg/mL (≈ 12.4 µM)
- MIC [4]; 1530: 32 µg/mL (≈ 12.4 µM)
- MIC ([5]; 1F-1): 64 µg/mL (≈ 24.8 µM)
- MIC ([6]; A4 (VRE, VanA)): 32 µg/mL (≈ 12.4 µM)
- MIC ([7]; ATCC 13076): 32 µg/mL (≈ 12.4 µM)
- MIC ([8]; 5F-10): 64 µg/mL (≈ 24.8 µM)
- MIC ([9]; ATCC 25922): 64 µg/mL (≈ 24.8 µM)
- MIC ([10]; B2 (blaNDM-5 + mcr-1)): 64 µg/mL
- MIC ([11]; 1F28 (tet(X4))): 32 µg/mL (≈ 12.4 µM)
- MIC ([12]; B3-1 (tet(X4))): 32 µg/mL (≈ 12.4 µM)
- MIC ([13]; C3 (blaNDM-1)): 32 µg/mL (≈ 12.4 µM)
- MIC ([14]; CP131 (mcr-3)): 16 µg/mL (≈ 6.2 µM)
- MIC ([15]; G6 (blaNDM-5)): 16 µg/mL (≈ 6.2 µM)
- MIC ([16]; G92 (mcr-1)): 32 µg/mL (≈ 12.4 µM)
- MIC ([17]; ATCC 19609): 32 µg/mL (≈ 12.4 µM)
- MIC ([18]; C222 (tet(X6))): 32 µg/mL (≈ 12.4 µM)
- MIC ([19]; PA14): 32 µg/mL (≈ 12.4 µM)
- MIC ([20]; ATCC 700603): 64 µg/mL (≈ 24.8 µM)
- MIC ([21]; D120 (mcr-8)): 32 µg/mL (≈ 12.4 µM)
- MIC [22]: 32 µg/mL (≈ 12.4 µM)
- MIC ([23]; T144): 64 µg/mL (≈ 24.8 µM)
- MIC ([23]; T144, 1 h): > 128 µg/mL
- MIC ([24]; B2): 32 µg/mL (≈ 12.4 µM)
- MIC ([24]; B2, 1 h): > 128 µg/mL
- MIC ([24]; E. coli B2, MgCl2 10 mM): 64 µg/mL (≈ 24.8 µM)

Molecule: Colistin
- MIC ([1]; MRSA T144, MHB, 16-18 h, 37 °C): 16 µg/mL
- MIC ([2]; S. aureus ATCC 29213, MHB, 16-18 h, 37 °C): 16 µg/mL
- MIC ([3]; MRSA 1518, MHB, 16-18 h, 37 °C): 16 µg/mL
- MIC ([4]; MRSA 1530, MHB, 16-18 h, 37 °C): 16 µg/mL
- MIC [25]: 16 µg/mL
- MIC [26]: 1 µg/mL
- MIC ([5]; E. faecalis 1F-1, MHB, 16-18 h, 37 °C): >64 µg/mL
- MIC ([6]; E. faecalis A4 (VRE, VanA), MHB, 16-18 h, 37 °C): 64 µg/mL
- MIC ([7]; S. enteritidis ATCC 13076, MHB, 16-18 h, 37 °C): 0.25 µg/mL
- MIC ([8]; E. faecium 5F-10, MHB, 16-18 h, 37 °C): >64 µg/mL
- MIC ([9]; E. coli ATCC 25922, MHB, 16-18 h, 37 °C): 0.5 µg/mL
- MIC ([10]; E. coli B2 (blaNDM-5 + mcr-1), MHB, 16-18 h, 37 °C): 8 µg/mL
- MIC ([11]; E. coli 1F28 (tet(X4)), MHB, 16-18 h, 37 °C): 0.125 µg/mL
- MIC ([12]; E. coli B3-1 (tet(X4)), MHB, 16-18 h, 37 °C): 0.0625 µg/mL
- MIC ([13]; E. coli C3 (blaNDM-1), MHB, 16-18 h, 37 °C): <0.125 µg/mL
- MIC ([14]; E. coli CP131 (mcr-3), MHB, 16-18 h, 37 °C): 2 µg/mL
- MIC ([15]; E. coli G6 (blaNDM-5), MHB, 16-18 h, 37 °C): 0.5 µg/mL
- MIC ([16]; E. coli G92 (mcr-1), MHB, 16-18 h, 37 °C): 4 µg/mL
- MIC ([17]; A. baumannii ATCC 19609, MHB, 16-18 h, 37 °C): 0.125 µg/mL
- MIC ([18]; A. baumannii C222 (tet(X6)), MHB, 16-18 h, 37 °C): <0.125 µg/mL
- MIC ([19]; P. aeruginosa PA14, MHB, 16-18 h, 37 °C): 1 µg/mL
- MIC ([20]; K. pneumoniae ATCC 700603, MHB, 16-18 h, 37 °C): 1 µg/mL
- MIC ([21]; K. pneumoniae D120 (mcr-8), MHB, 16-18 h, 37 °C): 4 µg/mL
- MIC ([22]; P. cibarius HNCF44W (blaNDM-1 + tet(X6)), MHB, 16-18 h, 37 °C): >256 µg/mL
- MIC [27]: <0.125 µg/mL
- MIC [28]: 2 µg/mL
- FIC index ([29]; antibiotic in combination with LI14, checkerboard 8 × 8, 18 h, ≤0.5 = synergy): 2
- MICa of antibiotic ([29]; in the absence of LI14): 8 µg/mL
- MICb of antibiotic ([29]; in the presence of ¼ MIC of LI14): 8 µg/mL
